Reference: paper PMC10065276, “Enhanced therapeutic window for antimicrobial Pept-ins by investigating their structure-activity relationship” (PLOS ONE, 2023)
Residues, ends and D or L forms follow the SMILES beside them.

Each compound was assayed on E. coli BL21. Conditions: BL21, 17 h.
Method: The peptide MIC was determined via the broth microdilution assay according to the EUCAST guideline, using 96-well polystyrene flat-bottom microtiter plates (BD Biosciences). Briefly, a single colony was inoculated in 5 mL Mueller-Hinton (MH) medium and incubated, while shaking at 37°C, to the end-exponential growth phase. The bacterial culture was subsequently diluted to 0.005 McFarland (McF) (~1.5x10^6 CFU/mL) with fresh MH medium. Two-fold serial peptide-dilutions were prepared in 50 μL MH medium resulting in a concentration range of 0.75 to 100 μg/mL (at least three wells for each concentration). Afterwards, 50 μL of the freshly diluted bacterial suspension (0.005 McF) was mixed with different peptide concentrations in the 96-well plate, performed in triplicates. The plate was ultimately incubated at 37°C overnight without shaking for 17 hours. The MIC was determined as the lowest peptide concentration without visible bacterial growth.
CC[C@H](C)[C@H](NC(=O)[C@H](C)NC(=O)[C@H](CCCNC(=N)N)NC(=O)[C@@H](NC(=O)[C@H](CC(C)C)NC(=O)[C@H](C)NC(=O)[C@H](CC(C)C)NC(=O)CNC(=O)[C@H](CC(C)C)NC(=O)CNC(=O)[C@@H](N)CCCNC(=N)N)C(C)C)C(=O)N[C@@H](CCCNC(=N)N)C(=O)NCC(=O)N[C@@H](CC(C)C)C(=O)NCC(=O)N[C@@H](CC(C)C)C(=O)N[C@@H](C)C(=O)N[C@@H](CC(C)C)C(=O)N[C@H](C(=O)N[C@@H](C)C(=O)N[C@@H](CCCNC(=N)N)C(=O)O)C(C)C [Peptide P2_4R_I] (H-RGLGLALVRAIRGLGLALVAR-OH) was tested, and the “BL21 MIC” value was 12.50 µg/mL.
CSCC[C@H](NC(=O)[C@H](C)NC(=O)[C@H](CCCNC(=N)N)NC(=O)[C@@H](NC(=O)[C@H](CC(C)C)NC(=O)[C@H](C)NC(=O)[C@H](CC(C)C)NC(=O)CNC(=O)[C@H](CC(C)C)NC(=O)CNC(=O)[C@@H](N)CCCNC(=N)N)C(C)C)C(=O)N[C@@H](CCCNC(=N)N)C(=O)NCC(=O)N[C@@H](CC(C)C)C(=O)NCC(=O)N[C@@H](CC(C)C)C(=O)N[C@@H](C)C(=O)N[C@@H](CC(C)C)C(=O)N[C@H](C(=O)N[C@@H](C)C(=O)N[C@@H](CCCNC(=N)N)C(=O)O)C(C)C [Peptide P2_4R_M] (H-RGLGLALVRAMRGLGLALVAR-OH) was tested, and the “BL21 MIC” value was 12.50 µg/mL.
In the case of CC(C)C[C@H](NC(=O)CNC(=O)[C@H](CCCNC(=N)N)NC(=O)[C@H](CCCNC(=N)N)NC(=O)[C@H](C)NC(=O)[C@H](CCCNC(=N)N)NC(=O)[C@@H](NC(=O)[C@H](CC(C)C)NC(=O)[C@H](C)NC(=O)[C@H](CC(C)C)NC(=O)CNC(=O)[C@H](CC(C)C)NC(=O)CNC(=O)[C@@H](N)CCCNC(=N)N)C(C)C)C(=O)NCC(=O)N[C@@H](CC(C)C)C(=O)N[C@@H](C)C(=O)N[C@@H](CC(C)C)C(=O)N[C@H](C(=O)N[C@@H](C)C(=O)N[C@@H](CCCNC(=N)N)C(=O)O)C(C)C [Peptide P2_4R_R] (H-RGLGLALVRARRGLGLALVAR-OH), the “BL21 MIC” value is reported as 12.50 µg/mL.
For CC(C)C[C@H](NC(=O)CNC(=O)[C@H](CCCNC(=N)N)NC(=O)[C@@H](NC(=O)[C@H](C)NC(=O)[C@H](CCCNC(=N)N)NC(=O)[C@@H](NC(=O)[C@H](CC(C)C)NC(=O)[C@H](C)NC(=O)[C@H](CC(C)C)NC(=O)CNC(=O)[C@H](CC(C)C)NC(=O)CNC(=O)[C@@H](N)CCCNC(=N)N)C(C)C)C(C)C)C(=O)NCC(=O)N[C@@H](CC(C)C)C(=O)N[C@@H](C)C(=O)N[C@@H](CC(C)C)C(=O)N[C@H](C(=O)N[C@@H](C)C(=O)N[C@@H](CCCNC(=N)N)C(=O)O)C(C)C [Peptide P2_4R_V] (H-RGLGLALVRAVRGLGLALVAR-OH), the “BL21 MIC” value was 12.50 µg/mL.
In the case of CC(C)C[C@H](NC(=O)CNC(=O)[C@H](CCCNC(=N)N)NC(=O)[C@H](Cc1c[nH]c2ccccc12)NC(=O)[C@H](C)NC(=O)[C@H](CCCNC(=N)N)NC(=O)[C@@H](NC(=O)[C@H](CC(C)C)NC(=O)[C@H](C)NC(=O)[C@H](CC(C)C)NC(=O)CNC(=O)[C@H](CC(C)C)NC(=O)CNC(=O)[C@@H](N)CCCNC(=N)N)C(C)C)C(=O)NCC(=O)N[C@@H](CC(C)C)C(=O)N[C@@H](C)C(=O)N[C@@H](CC(C)C)C(=O)N[C@H](C(=O)N[C@@H](C)C(=O)N[C@@H](CCCNC(=N)N)C(=O)O)C(C)C [Peptide P2_4R_W] (H-RGLGLALVRAWRGLGLALVAR-OH), the “BL21 MIC” value is reported as 12.50 µg/mL.
With CC(C)C[C@H](NC(=O)CNC(=O)[C@H](CCCNC(=N)N)NC(=O)[C@@H]1CCCN1C(=O)[C@H](CCCNC(=N)N)NC(=O)[C@H](CCCNC(=N)N)NC(=O)[C@@H](NC(=O)[C@H](CC(C)C)NC(=O)[C@H](C)NC(=O)[C@H](CC(C)C)NC(=O)CNC(=O)[C@H](CC(C)C)NC(=O)CNC(=O)[C@@H](N)CCCNC(=N)N)C(C)C)C(=O)NCC(=O)N[C@@H](CC(C)C)C(=O)N[C@@H](Cc1ccccc1)C(=O)N[C@@H](CC(C)C)C(=O)N[C@H](C(=O)N[C@@H](CCCNC(=N)N)C(=O)N[C@@H](CCCNC(=N)N)C(=O)O)C(C)C [Peptide P2_A5F] (H-RGLGLALVRRPRGLGLFLVRR-OH) the “BL21 MIC” value was 3.13 µg/mL.
With CC[C@H](C)[C@H](NC(=O)[C@H](CC(C)C)NC(=O)CNC(=O)[C@H](CC(C)C)NC(=O)CNC(=O)[C@H](CCCNC(=N)N)NC(=O)[C@@H]1CCCN1C(=O)[C@H](CCCNC(=N)N)NC(=O)[C@H](CCCNC(=N)N)NC(=O)[C@@H](NC(=O)[C@H](CC(C)C)NC(=O)[C@H](C)NC(=O)[C@H](CC(C)C)NC(=O)CNC(=O)[C@H](CC(C)C)NC(=O)CNC(=O)[C@@H](N)CCCNC(=N)N)C(C)C)C(=O)N[C@@H](CC(C)C)C(=O)N[C@H](C(=O)N[C@@H](CCCNC(=N)N)C(=O)N[C@@H](CCCNC(=N)N)C(=O)O)C(C)C [Peptide P2_A5I] (H-RGLGLALVRRPRGLGLILVRR-OH) the “BL21 MIC” value was 12.50 µg/mL.
CC(C)C[C@H](NC(=O)CNC(=O)[C@H](CCCNC(=N)N)NC(=O)[C@@H]1CCCN1C(=O)[C@H](CCCNC(=N)N)NC(=O)[C@H](CCCNC(=N)N)NC(=O)[C@@H](NC(=O)[C@H](CC(C)C)NC(=O)[C@H](C)NC(=O)[C@H](CC(C)C)NC(=O)CNC(=O)[C@H](CC(C)C)NC(=O)CNC(=O)[C@@H](N)CCCNC(=N)N)C(C)C)C(=O)NCC(=O)N[C@@H](CC(C)C)C(=O)N[C@@H](CC(C)C)C(=O)N[C@@H](CC(C)C)C(=O)N[C@H](C(=O)N[C@@H](CCCNC(=N)N)C(=O)N[C@@H](CCCNC(=N)N)C(=O)O)C(C)C [Peptide P2_A5L] (H-RGLGLALVRRPRGLGLLLVRR-OH) was tested, and the “BL21 MIC” value was 6.25 µg/mL.
For CSCC[C@H](NC(=O)[C@H](CC(C)C)NC(=O)CNC(=O)[C@H](CC(C)C)NC(=O)CNC(=O)[C@H](CCCNC(=N)N)NC(=O)[C@@H]1CCCN1C(=O)[C@H](CCCNC(=N)N)NC(=O)[C@H](CCCNC(=N)N)NC(=O)[C@@H](NC(=O)[C@H](CC(C)C)NC(=O)[C@H](C)NC(=O)[C@H](CC(C)C)NC(=O)CNC(=O)[C@H](CC(C)C)NC(=O)CNC(=O)[C@@H](N)CCCNC(=N)N)C(C)C)C(=O)N[C@@H](CC(C)C)C(=O)N[C@H](C(=O)N[C@@H](CCCNC(=N)N)C(=O)N[C@@H](CCCNC(=N)N)C(=O)O)C(C)C [Peptide P2_A5M] (H-RGLGLALVRRPRGLGLMLVRR-OH), the “BL21 MIC” value was 6.25 µg/mL.
For CC(C)C[C@H](NC(=O)CNC(=O)[C@H](CCCNC(=N)N)NC(=O)[C@@H]1CCCN1C(=O)[C@H](CCCNC(=N)N)NC(=O)[C@H](CCCNC(=N)N)NC(=O)[C@@H](NC(=O)[C@H](CC(C)C)NC(=O)[C@H](C)NC(=O)[C@H](CC(C)C)NC(=O)CNC(=O)[C@H](CC(C)C)NC(=O)CNC(=O)[C@@H](N)CCCNC(=N)N)C(C)C)C(=O)NCC(=O)N[C@@H](CC(C)C)C(=O)N[C@@H](Cc1c[nH]c2ccccc12)C(=O)N[C@@H](CC(C)C)C(=O)N[C@H](C(=O)N[C@@H](CCCNC(=N)N)C(=O)N[C@@H](CCCNC(=N)N)C(=O)O)C(C)C [Peptide P2_A5W] (H-RGLGLALVRRPRGLGLWLVRR-OH), the “BL21 MIC” value was 6.25 µg/mL.
With CC(C)C[C@H](NC(=O)CNC(=O)[C@H](CCCNC(=N)N)NC(=O)[C@@H]1CCCN1C(=O)[C@H](CCCNC(=N)N)NC(=O)[C@H](CCCNC(=N)N)NC(=O)[C@@H](NC(=O)[C@H](CC(C)C)NC(=O)[C@H](C)NC(=O)[C@H](CC(C)C)NC(=O)CNC(=O)[C@H](CC(C)C)NC(=O)CNC(=O)[C@@H](N)CCCNC(=N)N)C(C)C)C(=O)NCC(=O)N[C@@H](CC(C)C)C(=O)N[C@@H](Cc1ccc(O)cc1)C(=O)N[C@@H](CC(C)C)C(=O)N[C@H](C(=O)N[C@@H](CCCNC(=N)N)C(=O)N[C@@H](CCCNC(=N)N)C(=O)O)C(C)C [Peptide P2_A5Y] (H-RGLGLALVRRPRGLGLYLVRR-OH) the “BL21 MIC” value was 6.25 µg/mL.
CC(C)C[C@H](NC(=O)CNC(=O)[C@H](CCCNC(=N)N)NC(=O)[C@@H]1CCCN1C(=O)[C@H](CCCNC(=N)N)NC(=O)[C@H](CCCNC(=N)N)NC(=O)[C@@H](NC(=O)[C@H](CC(C)C)NC(=O)[C@H](C)NC(=O)[C@H](CC(C)C)NC(=O)CNC(=O)[C@H](CC(C)C)NC(=O)[C@H](C)NC(=O)[C@@H](N)CCCNC(=N)N)C(C)C)C(=O)NCC(=O)N[C@@H](CC(C)C)C(=O)N[C@@H](C)C(=O)N[C@@H](CC(C)C)C(=O)N[C@H](C(=O)N[C@@H](CCCNC(=N)N)C(=O)N[C@@H](CCCNC(=N)N)C(=O)O)C(C)C [Peptide P2_G2A] (H-RALGLALVRRPRGLGLALVRR-OH) was tested, and the “BL21 MIC” value was 6.25 µg/mL.
In the case of CC(C)C[C@H](NC(=O)CNC(=O)[C@H](CCCNC(=N)N)NC(=O)[C@@H]1CCCN1C(=O)[C@H](CCCNC(=N)N)NC(=O)[C@H](CCCNC(=N)N)NC(=O)[C@@H](NC(=O)[C@H](CC(C)C)NC(=O)[C@H](C)NC(=O)[C@H](CC(C)C)NC(=O)[C@H](C)NC(=O)[C@H](CC(C)C)NC(=O)CNC(=O)[C@@H](N)CCCNC(=N)N)C(C)C)C(=O)NCC(=O)N[C@@H](CC(C)C)C(=O)N[C@@H](C)C(=O)N[C@@H](CC(C)C)C(=O)N[C@H](C(=O)N[C@@H](CCCNC(=N)N)C(=O)N[C@@H](CCCNC(=N)N)C(=O)O)C(C)C [Peptide P2_G4A] (H-RGLALALVRRPRGLGLALVRR-OH), the “BL21 MIC” value is reported as 6.25 µg/mL.
In the case of CC(C)C[C@H](NC(=O)CNC(=O)[C@@H](N)CCCNC(=N)N)C(=O)NCC(=O)N[C@@H](CC(C)C)C(=O)N[C@@H](C)C(=O)N[C@@H](CC(C)C)C(=O)N[C@H](C(=O)N[C@@H](CCCNC(=N)N)C(=O)N[C@@H](CCCNC(=N)N)C(=O)N1CCC[C@H]1C(=O)N[C@@H](CCCNC(=N)N)C(=O)N[C@@H](C)C(=O)N[C@@H](CC(C)C)C(=O)NCC(=O)N[C@@H](CC(C)C)C(=O)N[C@@H](C)C(=O)N[C@@H](CC(C)C)C(=O)N[C@H](C(=O)N[C@@H](CCCNC(=N)N)C(=O)N[C@@H](CCCNC(=N)N)C(=O)O)C(C)C)C(C)C [Peptide P2_G13A] (H-RGLGLALVRRPRALGLALVRR-OH), the “BL21 MIC” value is reported as 12.50 µg/mL.
